# Measured values from patent US7169573B2, “Method for monitoring coagulability and hypercoagulable states” (Oklahoma Medical Research Foundation, priority 2001, dated 2007).
# Where “and” joins values, the source holds several entries; their conditions need not be identical. Equal values may be shown once.
# Columns and labels:
# [1] = cited from earlier work
# [2] = system: soluble endothelial protein C receptor (sEPCR); experiment: Plasma soluble EPCR level by monoclonal antibody-based ELISA in subjects on anticoagulant therapy; format: in vivo, human; details: for [sEPCR]: individual patients taking Sintrom, plasma, ELISA
# Procedure: Soluble EPCR is generated in vitro by metalloproteinase activity induced by thrombin and some inflammatory mediators (Xu et al., 2000). Thus, the inventors chose to determine whether soluble EPCR levels reflected in vivo thrombin generation. To evaluate this, the soluble EPCR levels were determined in patients on oral anticoagulant therapy and compared with soluble EPCR levels found in a normal, apparently healthy adult population (FIGS. 1A and 1B). These samples were obtained from collaborators in France (Dr. M. Grimeaux, Serbio/Diagnostica Stago). The soluble EPCR levels are assayed using a monoclonal antibody-based enzyme-linked immunosorbent assay (ELISA) (U.S. Pat. No. 5,804,392, incorporated by reference herein). […] Previscan is a major oral anticoagulant used in France and Germany. […] The half-life for factor VII is only 3–5 hours, whereas that for prothrombin is 60–100 hrs.
# To further evaluate the relationship between plasma sEPCR levels and anticoagulant therapy, samples were obtained from a normal adult population and from patients on intravenous unfractionated heparin therapy (FIG. 3). The data shown in FIGS. 3, 4A, 4B and 5 were obtained from samples contributed by a collaborator in Italy (Dr. Armando D'Angelo, Scientific Institute H. S. Rafeale, Milan, Italy).
# Plasma was stored at −80° C. for determination of sEPCR levels by ELISA.
# [3] = cited from earlier work; remark: listed apart in the source
# [4] = system: prothrombin fragment 1+2 (F1+2)
# Procedure: Blood was taken before the start of anticoagulation and sEPCR levels were determined by ELISA over the course of their therapy. There were 3 patients with atrial fibrillation and one patient each with dilative cardiomyopathy, mitral valve disease, atrial fibrillation+stroke, and deep vein thrombosis (DVT).
# INR = INR (prothrombin time based) in patients on oral anticoagulant; format: in vivo, human; details: individual patients taking Sintrom, one plasma sample per line
compound,measurement,setting,value
4-hydroxycoumarin [Warfarin],"intracranial bleeding, share of patients",[1]; during each year of therapy,0.1–0.5%
same,"major bleeding, share of people treated",[1]; during each year of therapy,1–8%
same,"Warfarin-induced skin necrosis, share of patients",[1]; in vivo,0.01–0.1%
same,plasma sEPCR levels during Warfarin treatment period,"[2]; 6 normal adult subjects, Warfarin 7 days, FIG. 4A",declined
same,lag time before sEPCR levels declined after initiation of Warfarin,[2]; normal adult subjects,24 to 48 h
same,time after cessation of Warfarin until sEPCR levels began to increase,[2]; normal adult subjects,24 to 48 h
same,time to maximal blood levels,"[3]; healthy volunteers, absorbed from the GI tract",90 min
same,bioavailability,[3]; in vivo,excellent
same,onset,[3]; in vivo,2 to 7 days
same,"F1+2 level, % of initial values","[4]; healthy subjects, day 5 of Warfarin, P<0.05",39%
same,F1+2 levels after initiation of Warfarin therapy,"[4]; seven patients starting oral anticoagulation, FIG. 7",declined in most of the patients
O=C1c2ccccc2C(=O)C1c1ccc(F)cc1 [Previscan],half-life (in words),[3]; in vivo,long half-life (days)
CC(=O)CC(c1ccc([N+](=O)[O-])cc1)c1c(O)c2ccccc2oc1=O (centres unmarked) [Sintrom],INR,INR,2.0 and 2.6 and 3.3 and 3.6
same,INR,INR; listed as SINTROM,2.6 (2×) and 2.7 (2×) and 2.8 and 3.1 (2×) and 3.3 (2×) and 3.4 and 3.5 and 3.6 and 4.5 and >5.0 (4×) and 1.5 and 1.8 and 1.9 and 2.0
same,[sEPCR],[2],369 ng/mL and 357 ng/mL and 198 ng/mL and 293 ng/mL
same,[sEPCR],[2]; listed as SINTROM,357 ng/ml and 131 ng/ml and 92 ng/ml and 127 ng/ml and 59 ng/ml and 61 ng/ml (2×) and 198 ng/ml and 171 ng/ml and 164 ng/ml and 56 ng/ml (2×) and 293 ng/ml and 172 ng/ml and 54 ng/ml and 94 ng/ml and 140 ng/ml and 135 ng/ml and 167 ng/ml and 369 ng/ml and 63 ng/ml
same,half-life,[3]; Sintrom,~8.5 h
